This series can be described thus: gradient 5% acetonitrile 3 min, to 50% in 2 min, to 85% in 15 min, held 3 min, 100 µL/min. The settings on record: column: Zorbax Extend-C18 2.1 x 50 mm; eluents: water / acetonitrile, 0.1% formic acid. Summed up:
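Values are retention times taken from adduct peaks that software picked and an analyst inspected. The pure standards were run as mixtures of ~100 molecules on HPLC linked to a quadrupole time-of-flight mass spectrometer, in positive and negative ionization mode. A Zorbax Extend-C18 column (2.1 × 50 mm, 1.8 μm) was used at 100 μL/min with water and acetonitrile, each including 0.1% formic acid.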
Consider `COc1ccc(Nc2c(C(=O)N3CCCC(C)C3)cnc3nc(C)ccc23)cc1` (centres undefined), for which the RP-LC retention time was determined as 650 s.

`Cc1ccc(S(=O)(=O)Cc2noc(CCNS(=O)(=O)c3ccc(C)cc3)n2)cc1` yielded an RP-LC retention time of 875 s.

As to `CC(C)NCc1ccc(-c2ccc(F)cc2)o1`, the RP-LC retention time came out at 647 s.

As to `O=C(C1CCCC1)N1CCN(Cc2nnnn2-c2ccccc2)CC1`, the RP-LC retention time amounted to 712 s.

`COC(=O)c1cc(S(=O)(=O)N2CCCC2C(=O)Nc2cc(C)ccc2C)cn1C` (centres undefined) came in with an RP-LC retention time of 901 s.

With `CN(C)c1cccc(C(=O)N2CCC3(C2)C(=O)N(C)c2ccccc23)c1` (centres undefined), the RP-LC retention time was 710 s.

Regarding `Cc1ccccc1NS(=O)(=O)c1ccc(-c2c(C)noc2C)cc1`, the RP-LC retention time was determined as 924 s.

Take `CC(=O)Nc1c(C)noc1/C=C\c1ccc(S(=O)(=O)N2CCN(c3ccccn3)CC2)cc1`: the RP-LC retention time worked out at 643 s.

`O=S(=O)(Cc1ccccc1)N1CCCCC1c1nc(-c2ccccc2)n[nH]1` (centres undefined): the RP-LC retention time worked out at 943 s.

Regarding `Cn1c(=O)c2nc(S(=O)(=O)CCC(=O)Nc3ccc(F)cc3F)n(C)c2n(C)c1=O`, the RP-LC retention time worked out at 737 s.

In turn, `O=C(C1CCCN(c2ncnc3c2nc2n3CCCCC2)C1)N1CCN(c2ccc(F)cc2)CC1` (centres undefined) displayed an RP-LC retention time of 829 s.

On to `COc1ccc(CN2CCc3nc(N4CCN(c5ccccc5F)CC4)ncc3C2)cc1`, for which the RP-LC retention time is 773 s.

Turning to `O=C(NCCOc1ccc(-c2cccs2)nn1)NCc1ccccc1`, the RP-LC retention time was determined as 734 s.

Compound `CC(C)Cc1csc(-c2csc(S(=O)(=O)NCc3cccs3)c2)n1` displayed an RP-LC retention time of 1150 s.

In turn, `O=C(c1cc(-c2ccccc2)n[nH]1)N1CC(c2nc(C3CC3)no2)C1` showed an RP-LC retention time of 711 s.

The compound `COC(=O)c1c(C)[nH]c(C(=O)N2CCC(CC(=O)NCc3ccc(SC)cc3)CC2)c1C` yielded an RP-LC retention time of 774 s.

`COc1ccc(OC)c(CNC(=O)c2cc3c(=O)n(C)ccc3n2C)c1` returned an RP-LC retention time of 692 s.

The compound `COc1cc(NC(=O)N2C[C@@H](F)C[C@H]2C(=O)N2CCc3ccccc3C2)cc(OC)c1` displayed an RP-LC retention time of 752 s.

Regarding `COc1cc(NC(=O)C2CCN(S(=O)(=O)c3c(C)nn(-c4ccccc4)c3C)CC2)cc(OC)c1`, the RP-LC retention time worked out at 848 s.

In the case of `O=C(NCc1ccccc1)c1nc(Cn2c(=O)oc3ccc(Cl)cc32)no1`, the RP-LC retention time was found to be 960 s.

In turn, `CC1CCCN(c2ccc(-c3noc(CN4CCN(CC(=O)NC(C)C)CC4)n3)cn2)C1` (centres undefined) registered an RP-LC retention time of 635 s.

The compound `COc1cccc(-c2nc(NCc3ccncc3)ncc2C(=O)O)c1` registered an RP-LC retention time of 577 s.

For `CCN1C(=O)c2cccnc2Sc2cc(NC(=O)CCOC)ccc21`, the RP-LC retention time was found to be 645 s.

In turn, `O=c1c2ccccc2c(-c2nc(-c3cccnc3)no2)cn1-c1cccc(F)c1` yielded an RP-LC retention time of 709 s.

Regarding `O=C(c1nnc(-c2ccc(S(=O)(=O)N3CCOCC3)cc2)o1)N1CCCC1`, the RP-LC retention time was 734 s.

The compound `Cc1ccc(C(=O)N2CCC3(CCC3N3CCOCC3)CC2)s1` (centres undefined) came in with an RP-LC retention time of 597 s.

Take `Clc1ccc(C(Cn2ccnc2)OCc2c(Cl)cccc2Cl)c(Cl)c1` (centres undefined): the RP-LC retention time amounted to 929 s.

Regarding `CN(C)c1ccc(CNc2ccc(-c3nc(-c4ccc(F)cc4)no3)cn2)cc1`, the RP-LC retention time came to 889 s.

Consider `CC1CCN(c2cc(-n3cnc(C(=O)N4CCc5ccccc54)c3)ncn2)CC1`, for which the RP-LC retention time is 1140 s.

`CCC(=O)N1CCc2cc(N3CC(C(=O)N4CCCN(C)CC4)CC3=O)ccc21` (centres undefined) came in with an RP-LC retention time of 572 s.

As for `Cc1ccc(CN2C(=O)CN(S(C)(=O)=O)CC2(C)C(=O)NCc2ccccc2)cc1` (centres undefined), the RP-LC retention time came out at 851 s.

Take `CCCCn1cc(S(=O)(=O)Nc2ccccc2C)c2cccnc21`: the RP-LC retention time came out at 985 s.

In turn, `Cc1oc2ncn(CC(=O)N3CCCc4ccccc43)c(=O)c2c1C` returned an RP-LC retention time of 838 s.

Turning to `Cc1cc(N2CCN(S(=O)(=O)c3cccc(F)c3)CC2)nc(NC2CCCCC2)n1`, the RP-LC retention time is 797 s.

For `CCCNC(=O)C1CCCN(c2ccc(SCC(=O)Nc3cccc(C(F)(F)F)c3)nn2)C1` (centres undefined), the RP-LC retention time stood at 744 s.

Turning to `COc1cccc(-c2nnc(N)o2)c1`, the RP-LC retention time is 674 s.

The compound `Cn1cc(-c2cc3n(n2)CCCN3C(=O)CCC(=O)NCc2ccccn2)c2ccccc21` gave an RP-LC retention time of 629 s.

`Cc1ccc(NC(=O)COc2nc(C)nc3ccccc23)c(Br)c1`: the RP-LC retention time turned out to be 874 s.

Consider `Cc1ccc(Nc2nc(-c3ccccc3)cs2)cc1`, for which the RP-LC retention time amounted to 1170 s.

On to `COc1ccc(NC(=O)Cn2c(N3CCCC3)nc(C)cc2=O)cc1`, for which the RP-LC retention time is 603 s.

For `Cc1sc2ncnc(N3CCCC(C)C3)c2c1C(=O)Nc1ccc(Br)cc1` (centres undefined), the RP-LC retention time was 1310 s.

In turn, `CCN(C(=O)Nc1ccccc1[N+](=O)[O-])c1nc(-c2ccc(C)cc2)cs1` showed an RP-LC retention time of 1410 s.

For `Cc1ccc(S(=O)(=O)N2CC(=O)N(c3cccc(F)c3)C(C)(C(=O)NCc3ccccc3)C2)cc1` (centres undefined), the RP-LC retention time stood at 948 s.

`Cc1[nH]c(C(=O)NC2CCCCC2)c(C)c1S(=O)(=O)N1CCCC1` registered an RP-LC retention time of 843 s.

Regarding `CCOC(=O)C1CCN(C(=O)C(C)N2C(=O)C3CCCCN3C(=O)c3ccccc32)CC1` (centres undefined), the RP-LC retention time came to 745 s.

As to `O=C(Cc1ccc(F)cc1)Nc1nnc(-c2ccc(Br)cc2)s1`, the RP-LC retention time worked out at 952 s.

As for `CC(C)n1c(CCNC(=O)CCc2ccccc2)nc2cccnc21`, the RP-LC retention time stood at 716 s.

Take `COc1ccc(NS(=O)(=O)c2c(C)nn(-c3ccc(-c4ccc(C)cc4)nn3)c2C)cc1F`: the RP-LC retention time worked out at 999 s.

`Cc1ccc2nc3c(C(=O)NC4CC4)cccn3c(=O)c2c1`: the RP-LC retention time came to 942 s.

As to `O=C(CN1CCN(C(=O)Nc2ccc(Br)cc2)CC1=O)NCc1ccccn1`, the RP-LC retention time is 615 s.

For `COc1cccc(-n2ccc(=O)c(-c3nc(-c4cccc(OC)c4OC)no3)n2)c1`, the RP-LC retention time amounted to 826 s.

With `COc1cc2c(cc1O)CC1c3c(cc(O)c(OC)c3-2)CCN1C` (centres undefined), the RP-LC retention time stood at 628 s.

For `COC(=O)c1ccc2c(=O)n(-c3ccc(C)cc3)c(N3CCN(c4ccccn4)CC3)nc2c1`, the RP-LC retention time worked out at 728 s.

As to `O=C(NCCc1ccco1)c1cc2n(n1)CCCN(Cc1cccc(F)c1)C2=O`, the RP-LC retention time was 751 s.

Regarding `O=S(=O)(c1ccc2c(c1)-c1oncc1CO2)N1CCN(C(c2ccccc2)c2ccccc2)CC1`, the RP-LC retention time is 1130 s.

In turn, `Cc1ccc(NC(=O)Cn2nc3c(Oc4ccc(C(C)C)cc4)nccn3c2=O)c(C)c1` came in with an RP-LC retention time of 1050 s.

In the case of `CC(C)CNC(=O)C1CCN(c2nccn3nc(-c4cccs4)cc23)CC1`, the RP-LC retention time is 561 s.

Compound `COc1cccc(N2CCN(C(=O)CN3CCN(Cc4ccc(C)cc4)C(=O)C3=O)CC2)c1` displayed an RP-LC retention time of 772 s.

For the compound `Cc1ccccc1CNC(=O)c1ncn2c1C(=O)N(C1CC1)C(C)(C(=O)NCc1ccc(F)cc1)C2` (centres undefined), the RP-LC retention time was determined as 798 s.

In turn, `O=C(CCc1c(-c2ccc(F)cc2)nc2ccccn12)N1CCN(c2ccccc2F)CC1` gave an RP-LC retention time of 694 s.

`Cc1nc2ccn(Cc3cccs3)c(=O)c2cc1C(=O)N1CCOCC1`: the RP-LC retention time amounted to 648 s.

With `O=S(=O)(c1cccc(F)c1)N1CC(c2nc(CCOCC3CC3)no2)C1`, the RP-LC retention time is 907 s.

The compound `CC1=NS(=O)(=O)N(C)C=C1C(=O)OCc1nc(Cc2ccccc2C)no1` returned an RP-LC retention time of 987 s.

`N#CSc1ccc(NC(=O)c2ccc(-n3cnnn3)cc2)cc1` displayed an RP-LC retention time of 754 s.

`Cc1cc2[nH]c(C(=O)Nc3ccccc3F)c(CN3CCOCC3)c2s1` gave an RP-LC retention time of 686 s.

`CC1CCCCN1c1cc(-n2cnc(C(=O)N3CCCCC3)c2)ncn1` (centres undefined) displayed an RP-LC retention time of 880 s.

For `Cc1ccc(S(=O)(=O)N2C(=O)CCC2C(=O)N2CCc3ccccc32)cc1C` (centres undefined), the RP-LC retention time came to 1000 s.

The compound `CC(=O)c1cccc(C(=O)NC2(c3nc(C)no3)CCCCC2)c1` displayed an RP-LC retention time of 798 s.

Compound `O=C(Nc1ccccc1F)N1[C@H]2CC[C@@H]1c1cncnc1C2` displayed an RP-LC retention time of 646 s.

The compound `CCC(C(=O)N1CCN(c2ccccn2)CC1)n1ccc2cc(S(=O)(=O)N3CCCCC3)ccc21` (centres undefined) gave an RP-LC retention time of 734 s.

`Cc1ncsc1CN1CC(Oc2ccc(-c3noc(C4CC4)n3)cc2)C1` yielded an RP-LC retention time of 652 s.

As for `CCOc1ccc(C(=O)N2C[C@@H]3C[C@H]2C[C@@H]3NC(=O)c2ccccc2)cc1`, the RP-LC retention time is 757 s.

Consider `CCOC(=O)N1CCN(c2cc(C(=O)O)c3cc(NC(=O)CC)ccc3n2)CC1`, for which the RP-LC retention time came to 553 s.

As to `O=c1c2nnc(SCc3ccccc3)n2ccn1-c1ccc(Br)cc1`, the RP-LC retention time was 812 s.

`Cc1nc2cccnc2n1-c1cccc(C(=O)N2CCN(c3ccccn3)CC2)c1`: the RP-LC retention time stood at 568 s.

The compound `Cc1nn(CC(=O)NCc2ccc(F)cc2Cl)c(=O)c2noc(C)c12` came in with an RP-LC retention time of 721 s.

`CC(C)Cn1nc2c(S(=O)(=O)N3CCOCC3)cccn2c1=O` came in with an RP-LC retention time of 707 s.

The compound `CC(C)CCNC(=O)C1CCCCC(=O)N1` (centres undefined) came in with an RP-LC retention time of 670 s.

`CCCC(=O)Nc1ccc(S(=O)(=O)NCCn2ncccc2=O)cc1` registered an RP-LC retention time of 612 s.

The record behind these values is the METLIN SMRT retention time set (Domingo-Almenara et al. 2019).
